Data set [1] in a line: Octanol-water partition coefficient, log KOW of the compound. The class given is physicochemical. As to conditions: read-out: log K.
A short description of data set [2]: Binding affinity to human serum albumin.
In a further data set the test system is Rana temporaria. Nature of the data set: Anesthetic potency in Rana temporaria tadpoles assessed as loss of righting reflex for 60 mins. The note with it: 1 h.
Data set [3] addresses T1, Gamma-aminobutyric acid receptor subunit alpha-1 (Homo sapiens, UniProt P14867+P18507+P47870).
T1 sequence (P14867 whole entry): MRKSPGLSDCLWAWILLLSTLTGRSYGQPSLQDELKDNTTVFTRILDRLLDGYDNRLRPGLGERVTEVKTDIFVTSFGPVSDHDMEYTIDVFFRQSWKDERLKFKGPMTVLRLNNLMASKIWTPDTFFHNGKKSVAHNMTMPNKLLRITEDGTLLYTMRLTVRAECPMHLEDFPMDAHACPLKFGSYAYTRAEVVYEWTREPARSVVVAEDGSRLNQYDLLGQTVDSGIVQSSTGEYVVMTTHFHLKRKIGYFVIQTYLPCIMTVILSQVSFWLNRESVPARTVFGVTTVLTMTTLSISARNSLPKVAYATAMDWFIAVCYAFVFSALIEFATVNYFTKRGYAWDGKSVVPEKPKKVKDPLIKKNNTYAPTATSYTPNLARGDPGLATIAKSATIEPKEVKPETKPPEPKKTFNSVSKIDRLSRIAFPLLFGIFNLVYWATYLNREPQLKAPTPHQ
Nature of the data set: Activity at human GABAA alpha-1-beta-2-gamma-2s receptor expressed in HEK293 cells assessed as effect on GABA-induced current at 3 uM by whole cell patch-clamp technique. The class given is cell-based.

The subject of another data set is Rattus norvegicus. The experiment in a line: Anesthetic potency in Sprague-Dawley rat assessed as loss of righting reflex. The class given is functional.
A short description of data set [4]: Chemical stability in aqueous solution assessed as hydrolysis after 4 hrs. The class given is physicochemical. As to conditions: read-out: Activity.

In the case of `COC(=O)c1cncn1C(C)c1ccccc1` (stereo unspecified) [METOMIDATE], the logP in data set [1] came to 2.28.
Compound `CCOC(=O)c1cncn1[C@H](C)c1ccccc1` [ETOMIDATE] displayed a Kd in data set [2] of 176 µM. For the same compound, in data set [1], the logP was 2.89.
With `CCOC(=O)c1cncn1[C@@H](C)c1ccccc1` [S-ETOMIDATE], the EC50 in the data set with Rana temporaria amounted to 36 µM.
Consider `CC(c1ccccc1)n1cncc1C=O` (stereo unspecified), for which the logP in data set [1] is 1.77.
With `C[C@H](c1ccccc1)n1cncc1C(=O)N=[N+]=[N-]`, in data set [3], the EC50 is 11 µM. The Kd in data set [2] is 121 µM. Besides, the ED50 in the data set on Rattus norvegicus is 1.7 mg/kg.
In the case of `CC(c1ccccc1)n1cncc1C(=O)N=[N+]=[N-]` (stereo unspecified), the degraded at 4 h in data set [4] came out at 10%. Further, the logP in data set [1] came out at 2.71.
Consider `CC(c1ccccc1)n1cncc1CO` (stereo unspecified), for which the logP in data set [1] worked out at 1.28.
